Experimental data published in US6369101B1, “Therapeutic method to treat herpes virus infection” (Regents of the University of Minnesota, priority 1999, dated 2002).
In brackets after ≈: the same amount, converted by molar mass.

How the values were obtained:
[1] = tested on: HSV-2 strain G; experiment: CPE inhibition, HSV-2 strain G in HEp-2 cells; for Cytopathic Effect (CPE) Inhibition HSV-2 Strain G: key: +++ = Complete cytopathic effect; ++ = Moderate cytopathic effect; + = Minimum cytopathic effect; − = No cytopathic effect; assay type: cell-based, herpes simplex virus type 2; conditions: for Cytopathic Effect (CPE) Inhibition HSV-2 Strain G: conc. per compound (ng/ml)
[2] = tested on: HSV-2 (MS strain); experiment: Vaginal HSV-2 (MS) infection in guinea pigs, topical ointment; assay type: in vivo, guinea pig
Description: Female Hartley outbred guinea pigs 26 days old and weighing approximately 350 to 400 grams each were obtained from Charles River Breeding Labs, Wilmington, Mass. The animals were housed singly and given feed and water ad lib.
2% Betulin and allobetulin ointment were prepared aseptically in polyethylene glycol (PEG) as ointment base and stored at room temperature until used.
Female guinea pigs weighing 200 g were inoculated intravaginally with HSV-2 (MS strain). One hour before viral inoculation the animals were swabbed using Dacron-polyester tipped applicator moistened in sterile saline to remove vaginal secretions. The animals were then infected with one drop of HSV-2 suspension containing 1×10^4 pfu, and the surface of the vaginal mucosa was slightly scarified with a sterile Greer Derma Pick® Skin Testing System (Greer Labs, Lenoir, N.C.).
The treatment of infected guinea pigs was started 18 hours after infection and continued twice daily for 3 days. […] Each experiment included uninfected control, infected and placebo controls. […] The swabs were stored at −80° C. until analyzed. The virus content of the specimens was measured by plaque assay in HEp-2 cells and the mean virus titer was calculated. […] The variable assessed was typical HSV vesicle formation, size, number and whether confluent, induration at the site of infection and scab formation.

[3] = tested on: Vero cells; experiment: Cytotoxic effect in Vero cell line; assay type: cell-based, African green monkey; conditions: Vero cell line
Description: Human laryngeal epithelial carcinoma cells (HEp-2, ATCC, Rockville, Md.) were used for testing of antiviral compounds by cytopathic effect (CPE) inhibition and plaque reduction assay. […] HEp-2, African green monkey kidney cells (Vero, ATCC), HFF and primary rabbit kidney cells were used to determine the cytotoxic effect of compounds of formula I. These cells were propagated in Dulbeco's modified Eagle's medium (DMEM) (Sigma, USA) supplemented with 10% inactivated fetal calf serum (FCS), 25 mM HEPES, 0.2% sodium bicarbonate and 1% penicillin/-streptomycin at 37° C. in the presence of 5% CO2.
HFF, Vero and HEp-2 cells were seeded in 24-well tissue culture plates at a concentration of […] in DMEM containing 10% FCS and incubated for 24 hours at 37° C. in the presence of 5% CO2. To the monolayer of these cells 0.5, 1.0, 1.5 and 2.0 ml of solution of antiviral compounds were added in the respective wells in duplicate and the cells were then incubated in a 5% CO2 incubator at 37° C. for 72 hours. The cells were observed daily for any change in morphology. […] At the end of this time, the media-drug solution was removed and the cells washed. One ml of 0.25% trypsin was added to each well and incubated until the cells start to come off of the plate. The cells-media mixture was then pipetted up and down several times to resuspend the cells and 0.2 ml of the cell suspension was added to 9.8 ml of trypan blue and cells were counted using hemocytometer. Each sample was counted three times with three replicate wells per sample.

[4] = tested on: HSV-1 (E377); experiment: Cutaneous HSV-1 infection in guinea pigs, topical ointment; assay type: in vivo, guinea pig; conditions: topical ointment (2% betulin, 2% allobetulin, 5% Acyclovir) twice daily for 3 days
[5] = tested on: HSV-1 (strain F); experiment: Plaque reduction assay, HSV-1 strain F in HEp-2 cells; assay type: cell-based, herpes simplex virus type 1
Description: HEp-2 cells were grown to monolayer in 24 well tissue culture plates in DMEM containing 10% fetal calf serum at 37° C. for 24-36 hours in the presence of 5% CO2. The monolayer of HEp-2 cells was infected with 0.1 ml of HSV- 1 (strain F) or HSV-2 (strain G) containing 100 pfu. The viruses were allowed to adsorb for 1 hour at 37° C. in the presence of 5% CO2. All wells containing virus infected cells except virus control were overlaid with 0.9 ml of DMEM and 1 ml of test compound. The virus control and cell control received DMEM only. All microtiter plates were incubated at 37° C. in the presence of 5% CO2 and observed twice daily for 72 hours for viral CPE. At the end of the experiment, plates were stained with 0.1% crystal violet and the results were quantified by counting plaque forming units.

[6] = tested on: HSV-1 strain E-377; experiment: CPE inhibition assay, HSV-1 E377 in human foreskin fibroblast cells; assay type: cell-based, herpes simplex virus type 1; conditions: for EC50 HSV-1 E377: CPE inhibition in HFF cells; for Qualitative CPE at 2.0 ml dose HSV-1 E377: key: +++ = Complete cytopathic effect; ++ = Moderate cytopathic effect; + = Minimum cytopathic effect; − = No cytopathic effect
[7] = tested on: HSV-1 (E377); experiment: Cutaneous HSV-1 infection in rats, topical ointment; assay type: in vivo, rat; conditions: for effect on cutaneous HSV-1 infection (in words): topical ointment (2% betulin, 2% allobetulin, 5% Acyclovir) twice daily for 3 days from 18 hours after infection
[8] = HFF cells, solution conc. per compound (ng/ml) (Acyclovir 250)

C=C(C)[C@@H]1CC[C@]2(CO)CC[C@]3(C)[C@H](CC[C@@H]4[C@@]5(C)CC[C@H](O)C(C)(C)[C@@H]5CC[C@]43C)[C@@H]12 [Betulin, lup-20(29)-ene-3β, 28-diol, reference compound]
Cytopathic Effect (CPE) Inhibition HSV-2 Strain G [1]: +
anti HSV-2 activity (in words) ([1]; qualitative CPE inhibition assay): significant anti HSV-2 activity
effect on vaginal HSV-2 infection (in words) ([2]; 2% ointment twice daily for 3 days beginning 18 hours after infection): Significant effect
typical lesions and virus content in the infected vaginal area ([2]; by 6 to 8 days, 2% ointment twice daily for 3 days): decreased significantly
CC50 [3]: 0.125 µg/mL (≈ 0.282 µM)
effect on cutaneous HSV-1 infection (in words) [4]: diminished the development of the clinical infectious process
Plaque Reduction Assay Average pfu/10^5 Cells HSV-1 Strain F ([5]; conc. per compound as in column Conc. (ng/ml), HSV-1 virus control 5): 0 pfu/10^5 Cells
Plaque Reduction Assay Average pfu/10^5 Cells HSV-1 Strain F ([5]; conc. per compound as in column Conc. (ng/ml), HSV-1 virus control 5, listed as betulin): no plaque
EC50 HSV-1 E377 [6]: 0.25 µg/mL (≈ 0.565 µM)
anti HSV-1 activity (in words) ([6]; HFF cells, HSV-1 (E377)): significant anti-HSV-1 activity
Qualitative CPE at 2.0 ml dose HSV-1 E377 [6, 8]: +++
number of typical HSV lesions ([7]; HSV-1, by the 4th to 8th days of infection, 2% ointment twice daily for 3 days): decreased rapidly
effect on cutaneous HSV-1 infection (in words) [7]: diminished the signs of the infectious process

acycloguanosine [Acyclovir, reference compound]
Cytopathic Effect (CPE) Inhibition HSV-2 Strain G [1]: +++
CC50 [3]: 0.25 µg/mL
effect on cutaneous HSV-1 infection (in words) [4]: diminished the development of the clinical infectious process
Plaque Reduction Assay Average pfu/10^5 Cells HSV-1 Strain F ([5]; Conc. 12500 ng/ml, HSV-1 virus control 5): 0 pfu/10^5 Cells
Plaque Reduction Assay Average pfu/10^5 Cells HSV-1 Strain F ([5]; Conc. 12500 ng/ml, HSV-1 virus control 5, listed as Acyclovir®): no plaque
EC50 HSV-1 E377 [6]: 1.6 µg/mL
Qualitative CPE at 2.0 ml dose HSV-1 E377 ([6]; HFF cells, Conc. 12500 ng/ml): +
Qualitative CPE at 2.0 ml dose HSV-1 E377 [6, 8]: +++
effect on cutaneous HSV-1 infection (in words) [7]: same healing response
